# Columns and labels:
# [1] = target: GDP-bound HRAS wild-type protein (Homo sapiens, UniProt P01112); assay: Binding to HRAS by surface plasmon resonance (SPR), Single Cycle Kinetics
# [2] = target: GDP-bound NRAS wild-type protein (Homo sapiens, UniProt P01111); assay: Binding to NRAS by surface plasmon resonance (SPR), Single Cycle Kinetics
# [3] = SPR, GDP-bound HRAS wild-type vs GDP-bound KRAS wild-type
# [4] = SPR, GDP-bound NRAS wild-type vs GDP-bound KRAS wild-type
# Sequence of GDP-bound NRAS wild-type protein (P01111 whole entry): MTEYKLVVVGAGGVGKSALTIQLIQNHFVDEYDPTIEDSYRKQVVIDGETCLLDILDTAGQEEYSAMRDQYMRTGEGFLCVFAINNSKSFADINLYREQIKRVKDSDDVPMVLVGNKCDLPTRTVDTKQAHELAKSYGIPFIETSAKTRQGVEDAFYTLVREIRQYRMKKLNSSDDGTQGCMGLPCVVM
# Sequence of GDP-bound HRAS wild-type protein (P01112 whole entry): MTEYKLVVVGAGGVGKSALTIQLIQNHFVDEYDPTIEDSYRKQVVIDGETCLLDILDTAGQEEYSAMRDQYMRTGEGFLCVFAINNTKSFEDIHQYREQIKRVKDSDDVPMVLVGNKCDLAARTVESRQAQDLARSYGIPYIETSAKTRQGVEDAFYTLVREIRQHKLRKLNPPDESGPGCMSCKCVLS
structure (smiles),measurement,setting,value
CCCOC[C@H]1C(=O)N[C@@H]([C@@H](C)CC)C(=O)N(C)CC(=O)N(C)[C@H]2C/C=C\CCN(C2=O)[C@@H](Cc2ccc(C)cc2)C(=O)N(C)CC(=O)N[C@@H](CCc2ccc(C(F)(F)F)c(Cl)c2)C(=O)N2C[C@H](OCC)C[C@H]2C(=O)NC2(CC(C)(C)C2)C(=O)N(C)[C@@H](C2CCCC2)C(=O)N(C)[C@H](C(=O)N(C)C)CC(=O)N1C [PP2402],HRAS/KRAS (ratio of KD value with respect to HRAS to KD value with respect to KRAS),[1]; [3],A (a compound having 10 or more and less than 20 is denoted as A)
same,NRAS/KRAS (ratio of KD value with respect to NRAS to KD value with respect to KRAS),[2]; [4],A (a compound having 10 or more and less than 20 is denoted as A)
CCO[C@@H]1C[C@H]2C(=O)NC3(CCC3)C(=O)N(C)[C@@H](C3CCCC3)C(=O)N(CCC3CCCC3)[C@H](C(=O)N3CCOCC3)CC(=O)N(C)[C@@H](CC(C)C)C(=O)N[C@@H]([C@@H](C)CC)C(=O)N(C)CC(=O)N(C)[C@H]3CCCCN(C3=O)[C@@H](Cc3ccc(C(F)(F)F)cc3)C(=O)N(C)CC(=O)N[C@@H](CCc3cc(F)c(C(F)(F)F)c(F)c3)C(=O)N2C1 [PP0651],HRAS/KRAS (ratio of KD value with respect to GDP-bound HRAS wild-type protein to KD value with respect to KRAS),[1]; SPR,B (a compound having 3 or more and less than 10 is denoted as B)
same,NRAS/KRAS (ratio of KD value with respect to GDP-bound NRAS wild-type protein to KD value with respect to KRAS),[2]; SPR,B (a compound having 3 or more and less than 10 is denoted as B)
"CCC[C@H]1C(=O)N[C@@H]([C@@H](C)CC)C(=O)N(C2CC2)CC(=O)N(C)[C@H]2C/C=C\CCN(C2=O)[C@@H](Cc2ccc(C)cc2)C(=O)N(C)CC(=O)N[C@@H](CCc2cc(F)c(C(F)(F)F)c(F)c2)C(=O)N2C[C@H](OCC)C[C@H]2C(=O)NC2(CC(C)(C)C2)C(=O)N(C)[C@@H](C2CCCC2)C(=O)N(C)[C@H](C(=O)N(C)C)CC(=O)N1C [PP2093, (2S,8S,12R,14S,20S,23S,27S,30S,36S,38Z)-20-cyclopentyl-32-cyclopropyl-8-[2-[3,5-difluoro-4-(trifluoromethyl)phenyl]ethyl]-12-ethoxy-N,N,3′,3′,4,19,22,26,35-nonamethyl-30-[(1S)-1-methylpropyl]-3,6,9,15,18,21,25,28,31,34,42-undecaoxo-27-propyl-2-(p-tolylmethyl)spiro[1,4,7,10,16,19,22,26,29,32,35-undecazatricyclo[34.5.1.0^10,14]dotetracont-38-ene-17,1′-cyclobutane]-23-carboxamide]",HRAS/KRAS (ratio of KD value with respect to HRAS to KD value with respect to KRAS),[1]; [3],A (a compound having 10 or more and less than 20 is denoted as A)
same,NRAS/KRAS (ratio of KD value with respect to NRAS to KD value with respect to KRAS),[2]; [4],A (a compound having 10 or more and less than 20 is denoted as A)
CCCN(C)C(=O)[C@@H]1CC(=O)N(C)[C@@H](CC)C(=O)N[C@@H]([C@@H](C)CC)C(=O)N(C)CC(=O)N(C)[C@H]2C/C=C\CCN(C2=O)[C@@H](Cc2ccc(C(F)(F)F)cc2)C(=O)N(C)CC(=O)N[C@@H](CCc2ccc(C(F)(F)F)c(OC)c2)C(=O)N2C[C@H](OCC)C[C@H]2C(=O)NC2(CC(C)(C)C2)C(=O)N(C)[C@@H](C2CCCC2)C(=O)N1C [PP1654],HRAS/KRAS (ratio of KD value for HRAS to KD value for KRAS),"[1]; KD ratio, GDP-bound HRAS wild-type vs GDP-bound KRAS wild-type, SPR",A (a compound having 10 or more and less than 20 is denoted as A)
same,NRAS/KRAS (ratio of KD value for NRAS to KD value for KRAS),"[2]; KD ratio, GDP-bound NRAS wild-type vs GDP-bound KRAS wild-type, SPR",A (a compound having 10 or more and less than 20 is denoted as A)
C=CC[C@@H]1NC(=O)[C@H](CC2CC2)N(C)C(=O)C[C@@H](C(=O)N(C)CC=C)N(C)C(=O)[C@H](C2CCCC2)N(C)C(=O)C2(CCC2)NC(=O)[C@@H]2C[C@@H](OCC)CN2C(=O)[C@H](CCc2cc(F)c(C(F)(F)F)c(F)c2)NC(=O)CN(C)C(=O)[C@H](Cc2ccc(C(F)(F)F)cc2)N2CC/C=C\C[C@@H](C2=O)N(C)C(=O)CN(C)C1=O [PP1557],HRAS/KRAS (ratio of KD value for GDP-bound HRAS wild-type protein to KD value for KRAS),"[1]; SPR, KD ratio class",A (a compound having 10 or more and less than 20 is denoted as A)
same,NRAS/KRAS (ratio of KD value for GDP-bound NRAS wild-type protein to KD value for KRAS),"[2]; SPR, KD ratio class",A (a compound having 10 or more and less than 20 is denoted as A)
CCC[C@H]1C(=O)N[C@@H](CC(C)C)C(=O)N2C[C@@H](OC)C[C@H]2C(=O)N(C)[C@H]2C/C=C\CCN(C2=O)[C@@H](Cc2ccc(C)cc2)C(=O)N(C)CC(=O)N[C@@H](CCc2ccc(C(F)(F)F)c(OC)c2)C(=O)N2C[C@H](OCC)C[C@H]2C(=O)NC2(CCC2)C(=O)N(C)[C@@H](C2CCCC2)C(=O)N(C)[C@H](C(=O)N(C)C)CC(=O)N1C [PP2548],HRAS/KRAS (ratio of KD value with respect to GDP-bound HRAS wild-type protein to KD value with respect to KRAS),[1]; class symbols,B (a compound having 3 or more and less than 10 is denoted as B)
same,NRAS/KRAS (ratio of KD value with respect to GDP-bound NRAS wild-type protein to KD value with respect to KRAS),[2]; class symbols,A (a compound having 10 or more and less than 20 is denoted as A)
CCC[C@H]1C(=O)N[C@@H]([C@@H](C)CC)C(=O)N2C[C@@H](OC)C[C@H]2C(=O)N(C)[C@H]2C/C=C\CCN(C2=O)[C@@H](Cc2ccc(C)cc2)C(=O)N(C)CC(=O)N[C@@H](CCc2ccc(C(F)(F)F)c(OC)c2)C(=O)N2C[C@H](OCC)C[C@H]2C(=O)NC2(CC(C)(C)C2)C(=O)N(C)[C@@H](C2CCCC2)C(=O)N(C)[C@H](C(=O)N(C)C)CC(=O)N1C [PP2557],HRAS/KRAS (ratio of KD value with respect to GDP-bound HRAS wild-type protein to KD value with respect to KRAS),[1]; class symbols,B (a compound having 3 or more and less than 10 is denoted as B)
same,NRAS/KRAS (ratio of KD value with respect to GDP-bound NRAS wild-type protein to KD value with respect to KRAS),[2]; class symbols,A (a compound having 10 or more and less than 20 is denoted as A)

# — patent publication US20250230193A1, “CYCLIC COMPOUND HAVING SELECTIVE KRAS INHIBITORY EFFECT ON HRAS AND NRAS” (CHUGAI SEIYAKU KABUSHIKI KAISHA, priority 2022, published 2025)
